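Following 48 hours of exposure in 96-well plates, responses at five concentrations were used to interpolate endpoints linearly. TGI marks complete inhibition of growth.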
Columns and labels:
Experiment in all cases: NCI anticancer screen, dose series, 48 h
LOX IMVI melanoma = system: LOX IMVI melanoma
OVCAR-8 ovarian = system: OVCAR-8 ovarian
COLO 205 colon = system: COLO 205 colon
SNB-19 CNS = system: SNB-19 CNS
UACC-62 melanoma = system: UACC-62 melanoma
OVCAR-5 ovarian = system: OVCAR-5 ovarian
SK-MEL-5 melanoma = system: SK-MEL-5 melanoma
SK-MEL-28 melanoma = system: SK-MEL-28 melanoma
UO-31 renal = system: UO-31 renal
IGROV1 ovarian = system: IGROV1 ovarian
NCI/ADR-RES ovarian = system: NCI/ADR-RES ovarian
NCI-H522 lung = system: NCI-H522 lung
SF-295 CNS = system: SF-295 CNS
EKVX NSCLC = system: EKVX NSCLC
HOP-62 NSCLC = system: HOP-62 NSCLC
UACC-257 melanoma = system: UACC-257 melanoma
SK-MEL-2 melanoma = system: SK-MEL-2 melanoma
SN12C renal = system: SN12C renal
MALME-3M melanoma = system: MALME-3M melanoma
ACHN renal = system: ACHN renal

Structure (SMILES)	TGI (LOX IMVI melanoma) [µM]	TGI (OVCAR-8 ovarian) [µM]	TGI (COLO 205 colon) [µM]	TGI (SNB-19 CNS) [µM]	TGI (UACC-62 melanoma) [µM]	TGI (OVCAR-5 ovarian) [µM]	TGI (SK-MEL-5 melanoma) [µM]	TGI (SK-MEL-28 melanoma) [µM]	TGI (UO-31 renal) [µM]	TGI (IGROV1 ovarian) [µM]	TGI (NCI/ADR-RES ovarian) [µM]	TGI (NCI-H522 lung) [µM]	TGI (SF-295 CNS) [µM]	TGI (EKVX NSCLC) [µM]	TGI (HOP-62 NSCLC) [µM]	TGI (UACC-257 melanoma) [µM]	TGI (SK-MEL-2 melanoma) [µM]	TGI (SN12C renal) [µM]	TGI (MALME-3M melanoma) [µM]	TGI (ACHN renal) [µM]
CNC(=O)OCc1nc(SC)n(C)c1CO	> 100	> 100	> 100	> 100	> 100	> 100	> 100	> 100	> 100	> 100	> 100	> 100	> 100	> 100	> 100	> 100	> 66.8	> 100	3.42	
CC(C)(C)[Si](OC1CCOC1=O)(c1ccccc1)c1ccccc1 (centres undefined)	32.2	70.9	> 10	> 100	29.3	> 100	26.1	62.6	> 100	> 100		38	60.2	> 100		50.4	32.5	33.5	45.1	99.6
COc1ccccc1/C=C/c1ccnc2ccccc12	36	30.2	33.2	28.2	24.5	32.4	26.4	31.1		19.9	32.4		27.2	23	29.6	29.5	30.1	37.3	24.8	32.8
COc1cc(C(=O)NC2CCc3cc(OC)c(OC)c(OC)c3-c3ccc(OC)c(=O)cc32)cc(OC)c1OC (centres undefined)	> 100	> 46.1	0.23	> 100	45.9	> 100	0.377	> 100	> 98	71.6	70.3	0.0544	13	> 100	> 100	59.3	> 24.1	> 100	85.3	> 100
Cc1c2ccccc2c(C2C3C(=O)N(c4ccc(Br)cc4)C(=O)C3ON2C(C(N)=O)c2ccccc2)c2ccccc12 (centres undefined)	18.6	48	3.33	22.6	40.4	23.2	11.9	74.6	34.6	18.2	41.4	9	58.5	31.7	36.1	62.4	30.3	53.5	34.1	17.3
CC(=O)Oc1ccccc1	> 100	> 100		> 100	> 100	> 100	> 100	> 100	> 100	> 100		> 100	> 100	> 100	> 100	> 100	> 100	> 100	> 100	> 100
C[C@@H]1C[C@H]2[C@@H]3CCC4=CC(=O)C=C[C@]4(C)[C@@]3(F)[C@@H](O)C[C@]2(C)[C@@]1(O)C(=O)CO	> 100	> 100	> 100		> 100	> 100	> 100	> 100	> 100	> 100		> 100		> 100	> 100	> 100	> 100	> 100	> 100	> 100
Cc1ccc(O)c(Cc2nc3ccccc3nc2-c2cccc(Cl)c2)c1	> 100	> 100	> 100	63.4	> 100	> 100	> 100		> 100	> 100	> 100	79	> 100	> 100	> 100	> 100	> 100	> 100	> 100	> 100
O=C(C=P(c1ccccc1)(c1ccccc1)c1ccccc1)c1ccc(-c2cccs2)cc1	19.6	17.8	1.95	11.2	10.7	17.7	5.25	15.7	14.4	21.2	23.1	12	17.4	7.09	20.7	6.35	3.11	17.6	13.4	19.8
CCCCc1ccc(N=C(N)N)cc1	> 100	> 100	35.4	> 100	> 100	> 100	26.8	> 100	> 100	71.7	> 100	> 100	87.3	> 100		> 100	> 100	> 100	> 100	> 100
Cc1ccc2c(c1)SC1=Nc3sc4cc(C)ccc4[n+]3CN12	> 100	18.8	13.1	16.9	16.6	> 100	3.28	29.2	> 100	34	> 100	11.2		45.4	54.6	12.8	17.8	56.2	4.63	> 100
c1ccc2c(CSCc3cccc4ccccc34)cccc2c1	> 100	> 100		> 100	> 100	> 100	> 100	> 100	> 100	> 100	> 100	> 100	> 100	> 100	> 100	> 100	> 100	> 100	> 100	> 100
CCCCN1C(=O)C2Cc3c([nH]c4ccccc34)C(c3cccc(O)c3)N2C1=O (centres undefined)	32.2	33.2	39.5	34.6	32.3	33	31.1	34.3	32.8	31.3	36.2	39.9	31.9	31.9	33.1	33.9	32.9	32.5		34.1
C[C@H]1C[C@@H]2[C@H]([C@@H](O)C[C@@]3(C)[C@H]2CC[C@]3(O)C(=O)CO)[C@@]2(C)C=CC(=O)C=C12	> 100	> 100	> 100		> 100	> 100	> 100	> 100	> 100	> 100		> 100			> 100	> 100	> 100	> 100	> 100	> 100
CC(=O)Nc1ccc2c(c1)/C(=C\c1ccc([N+](C)(C)C)cc1)c1ccccc1-2	> 100	> 100	35.6	> 100	> 100	80.4	61.8	> 100	> 100	> 100	> 100	> 100	> 100	78.6	> 100	79.1		> 100	> 100	> 100
CCOC(=O)c1cnc(N(C)C)nc1SC(=N)N	> 100	> 100	> 100	> 100	> 100	> 100	> 100	> 100		> 100	> 100	> 100	> 100	> 100	> 100	> 100	> 100	> 100	> 100	> 100
